Measurements published in patent publication US12485178B2, “Bifunctional small molecules to target the selective degradation of circulating proteins” (YALE UNIVERSITY, priority 2018, dated 2025).

Tests used:
[1] = target: T1, human MIF (Homo sapiens, UniProt P14174); assay: Trafficking of MIF internalized by HepG2 cells to lysosomes (immunofluorescence colocalization); assay type: cell-based; details: 100 nM rhuMIF, 200 nM compound, 12 hours
T1 sequence (P14174 2-115 limits assumed): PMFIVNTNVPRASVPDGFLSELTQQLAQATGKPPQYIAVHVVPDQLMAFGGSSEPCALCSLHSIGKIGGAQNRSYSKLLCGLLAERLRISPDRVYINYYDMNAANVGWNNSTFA
Procedure: In this experiment, cells were incubated with rhuMIF (Cayman) at a concentration of 100 nM with 200 nM MIF-GN3.

[2] = target: T1, human MIF; assay: Depletion of injected human MIF from mice (serum sandwich ELISA); assay type: in vivo, mouse
Procedure: Human MIF has a half-life of approximately 40 minutes in mice. In this experiment, human recombinant MIF (Cayman chemical) was co-injected into mice with an anti-DNP IgG, which was used as an injection positive control. In particular, nude mice were injected with 5 μg recombinant human MIF and 200 μg anti-DNP IgG as an injection control (FIG. 4). MIF-GN3 was then injected at the concentration shown and blood drawn every twenty minutes over the course of two hours. Serum was diluted 1:100 and analyzed for MIF content by sandwich ELISA (biolegend monoclonal anti-MIF and biotinylated anti-MIF antibodies). […] In the mice treated with MIF-GN3, a moderate increase in huMIF levels up to 20 ng/ml was seen, while in mice injected with PBS negative control, serum levels of up to 150 ng/ml were observed, evidencing a substantial decrease in huMIF levels as a consequence of the administration of MIF-GN3.

[3] = test system: PC3 human prostate cancer cells; assay: Mouse model of prostate cancer (PC3 engraftment), tumor growth; assay type: in vivo; details: nude mice engrafted with PC3 cells, treatment initiated immediately
Description: In this experiment, nude mice were engrafted with PC3 human prostate cancer cells. Treatment was then initiated immediately with either a non-bifunctional MIF inhibitor (3w), an anti-MIF antibody, or MIF-GN3.

[4] = target: T1, human MIF; assay: Depletion of human MIF from supernatant of cultured HepG2 cells (sandwich ELISA); assay type: cell-based; details: 100 nM huMIF, after 24 hours
Procedure: In an experiment the results of which are presented in FIG. 3, bifunctional molecules were able to deplete human MIF from the supernatant of culture HepG2 cells. Briefly, human MIF (100 nM) was added to cell culture media in the presence of negative control MIF inhibitor 3w as well as bifunctional molecules MIF-NVS-PEGn-GN3, MIF-GN3, MIF-PEGn-Gn3, MIF-AcF3-1, MIF-AcF3-2, and MIF-AcF3-3. All molecules utilized a known MIF-binding ligand. Experiments were performed in 96 well plates (approximate surface area 0.3 cm^2). HepG2 cells were grown to 90% confluency in RPMI media, then washed with PBS (2×) and treated with serum-free media (optimem+0.1% BSA, +Pen/Strep) containing 100 nM huMIF (Cayman Chemical) and compounds (when applicable). Compounds were diluted from 1 mM stock solutions in DMSO. After 24 hours, a sample of the supernatant (2 uL) was collected, diluted 1:100, and analyzed for MIF content by sandwich ELISA (and incubated for 24 hours in the presence or absence of compound). Remaining MIF levels were determined by sandwich ELISA (biolegend monoclonal anti-MIF and biotinylated anti-MIF antibodies). Data represents the average of at least 3 biological replicates, and error bars represent a standard deviation. After 24 hours, up to 95.3% of the MIF had been depleted from cell culture media (in the case of MIF-AcF3-3).

MIF internalization in lysosomes [1] | serum huMIF levels ([2]; nude mice injected with 5 μg recombinant human MIF, blood drawn over two hours) | MIF depleted from cell culture media [4] | SMILES | depletion of injected human MIF from mice ([2]; nude mice, FIG. 5) | tumor growth [3]
evidencing internalization in lysosomes | up to 20 ng/ml |  | CC(=O)N[C@H]1[C@H](OCCOCCOCCNC(=O)CCOCC(COCCC(=O)NCCOCCOCCO[C@@H]2O[C@H](CO)[C@H](O)[C@H](O)[C@H]2NC(C)=O)(COCCC(=O)NCCOCCOCCO[C@@H]2O[C@H](CO)[C@H](O)[C@H](O)[C@H]2NC(C)=O)NC(=O)CNC(=O)CCCOc2ccc3nc(-c4cn(-c5ccc(O)c(F)c5)nn4)ccc3c2)O[C@H](CO)[C@H](O)[C@@H]1O [MIF-GN3] | mediates the depletion of injected human MIF from mice | slowing of tumor growth
 |  | 95.3% | O=C(CCOCC(COCCC(=O)NCCOCCOCCOCCOC[C@@]12CO[C@@H](O1)[C@H](NC(=O)C(F)(F)F)[C@@H](O)[C@H]2O)(COCCC(=O)NCCOCCOCCOCCOC[C@@]12CO[C@@H](O1)[C@H](NC(=O)C(F)(F)F)[C@@H](O)[C@H]2O)NC(=O)CCCOc1ccc2nc(-c3cn(-c4ccc(O)c(F)c4)nn3)ccc2c1)NCCOCCOCCOCCOC[C@@]12CO[C@@H](O1)[C@H](NC(=O)C(F)(F)F)[C@@H](O)[C@H]2O [MIF-AcF3-3] |  | 
